Data from patent US4962109A, “Insecticidally and acaricidally active pyrimidine esters and intermediates therefor” (Imperial Chemical Industries PLC, priority 1985, dated 1990).
Like-named read-outs stand apart in the source and are kept apart here.

What was measured:
Format in all cases: in vivo
[1] = system: Tetranychus urticae (spider mites - adult); assay: Contact test on spider mites - adult (TUa), French bean leaf, mortality; conditions: 72 h, 500 ppm, contact, 3 days, read-out: TUa grading of mortality
In short: (§1)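 Pests were supported on a host plant or food medium, and either or both were treated with preparations at 500, 250 or 100 ppm by weight. Mortality was assessed one to three days afterwards and banded into three grades, from A (80-100%) down to C (under 50%).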

[2] = system: Tetranychus urticae (spider mites - ova); assay: Contact test on spider mites - ova (TUe), French bean leaf, mortality; conditions: 144 h, 500 ppm, contact, 6 days, read-out: TUe grading of mortality
In short: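 Graded read-out: A 80-100%, B 50-79%, C below 50% mortality or knockdown, assessed usually 1-3 days post-treatment. Liquid preparations at 500, 250 or 100 ppm by weight, from acetone solution diluted in water with 0.01% wetting agent, applied to pests and/or their host plant or food medium.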

Myzus persicae (aphids) = assay: Contact test on aphids (MP), Chinese Cabbage leaf, mortality; conditions: 72 h, 500 ppm, contact, 3 days, read-out: MP grading of mortality
In short: as §1

[3] = system: Nilaparvata lugens (brown plant hopper); assay: Contact test on brown plant hopper (NL), Rice plant, mortality; conditions: 72 h, 3 days, read-out: NL grading of mortality
Method: (§2) The activity of the Product was determined using a variety of insect pests. The Product was used in the form of liquid preparations containing 500, 250 or 100 parts per million (ppm) by weight of the Product. The preparations were made by dissolving the Product in acetone and diluting the solutions with water containing 0.01% by weight of a wetting agent sold under the trade name "LISSAPOL" NX until the liquid preparations contained the required concentration of the Product. "Lissapol" is a Registered Trade Mark.
(§3) The test procedure adopted with regard to each pest was basically the same and comprised supporting a number of the pests on a medium which was usually a host plant or a foodstuff on which the pests feed, and treating either or both the pests and the medium with the preparations. The mortality of the pests was then assessed at periods usually varying from one to three days after the treatment.
(§4) The results of the tests are given in Table III for each of the Products, at the rate in parts per million given in the second column as a grading of mortality designated as A, B or C wherein A indicates 80-100% mortality or knockdown, B indicates 50-79% mortality or knockdown and C indicates less than 50% mortality or knockdown.

[4] = system: Musca domestica (houseflies - adults); assay: Knockdown test on houseflies - adults (MD/KD), Cotton wool/sugar; conditions: 500 ppm, 4 hours, read-out: MD/KD grading of knockdown
In short: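 Adult houseflies exposed to the compound at 500, 250 or 100 ppm in acetone/water with 0.01% wetting agent, on a cotton wool/sugar medium. Knockdown and mortality assessed, graded A (80-100%), B (50-79%) or C (<50%).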

[5] = system: Musca domestica (houseflies - adults); assay: Contact test on houseflies - adults (MD), Cotton wool/sugar, mortality; conditions: 500 ppm, contact, read-out: MD grading of mortality
In short: as §1

[6] = system: Blattella germanica (cockroach nymphs); assay: Residual test on cockroach nymphs (BG/R), Plastic pot, mortality; conditions: 72 h, 3 days, read-out: BG/R grading of mortality
Method: as §2, §3, §4
BG/R Blattella germanica

[7] = system: Heliothis virescens (tobacco budworm - larvae); assay: Residual test on tobacco budworm larvae (HV), Cotton leaf, mortality; conditions: 48 h, read-out: HV grading of mortality
In short: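 Product in acetone diluted with water containing 0.01% Lissapol NX, at 500, 250 or 100 ppm; pests and/or host medium (here cotton leaf) treated. Mortality scored one to three days later, graded A (80-100%), B (50-79%), C (<50%).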

[8] = system: Spodoptera exigua (lesser army worm - larvae); assay: Residual test on lesser army worm larvae (SP), Cotton leaf, mortality; conditions: 48 h, 500 ppm, residual, read-out: SP grading of mortality
In short: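 Product dissolved in acetone and diluted in water with 0.01% wetting agent to 500, 250 or 100 ppm; larvae and/or cotton leaf host treated. Mortality or knockdown scored one to three days later and graded A (80-100%), B (50-79%) or C (<50%).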

[9] = system: Diabrotica balteata (rootworm larvae); assay: Residual test on rootworm larvae (DB), Filter paper/maize seed, mortality; conditions: 48 h, 500 ppm, residual, read-out: DB grading of mortality
In short: as §1

[10] = system: Nephotettix cincticeps (green leaf hopper - nymphs); assay: Contact test on green leaf hopper nymphs (NC), Rice plant, mortality; conditions: 500 ppm, contact, read-out: NC grading of mortality
In short: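 Product dissolved in acetone, diluted in water with 0.01% wetting agent to 500, 250 or 100 ppm; nymphs and/or host rice plants treated. Mortality or knockdown assessed 1–3 days later, graded A (80-100%), B (50-79%), C (<50%).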

[11] = 24 h, ** test duration of 1 day
[12] = 72 h, * test duration of 3 days

Compound: CCC(C(=O)OCc1c(F)c(F)c(C)c(F)c1F)c1cnc(C(C)(C)C)nc1 (racemic) [Compound 122, 2,3,5,6-tetrafluoro-4-methyl (RS)-2-[2-(1,1-dimethylethyl)pyrimidin-5-yl]butanoate]
- mortality at 500 ppm [1]: 80 to 100%
- mortality at 500 ppm [2]: < 50%
- mortality at 500 ppm (Myzus persicae (aphids)): 80 to 100%
- mortality at 500 ppm [3]: < 50%
- pest or weed control at 500 ppm [4]: 80 to 100%
- mortality at 500 ppm [5, 11]: 80 to 100%
- mortality at 500 ppm [6]: < 50%
- mortality at 500 ppm [7]: 80 to 100%
- mortality at 500 ppm ([8]; * test duration of 3 days): 80 to 100%
- mortality at 500 ppm ([9]; * test duration of 3 days): 50 to 79%

Compound: C=CCc1c(F)c(F)c(COC(=O)C(c2cnc(-c3ccccc3)nc2)C(C)C)c(F)c1F (racemic) [Compound 113, 4-(prop-2-en-1-yl)-2,3,5,6-tetrafluorobenzyl (RS)-2-[2-phenylpyrimidin-5-yl)-3-methylbutanoate]
- mortality at 500 ppm [1]: < 50%
- mortality at 500 ppm [2]: < 50%
- mortality at 500 ppm (Myzus persicae (aphids)): 50 to 79%
- mortality at 500 ppm [3]: < 50%
- pest or weed control at 500 ppm [4]: 80 to 100%
- mortality at 500 ppm [5, 11]: 80 to 100%
- mortality at 500 ppm [6]: < 50%
- mortality at 500 ppm [7]: < 50%
- mortality at 500 ppm ([8]; * test duration of 3 days): < 50%
- mortality at 500 ppm ([9]; * test duration of 3 days): < 50%

Compound: COCc1c(F)c(F)c(COC(=O)C(c2cnc(C(F)(F)F)nc2)C(C)C)c(F)c1F (racemic) [Compound 116, 2,3,5,6-tetrafluoro-4-(methoxymethyl)benzyl (RS)-2-(2-trifluoromethylpyrimidin-5-yl)-3-methylbutanoate]
- mortality at 500 ppm [1]: 80 to 100%
- mortality at 500 ppm [2]: 80 to 100%
- mortality at 500 ppm (Myzus persicae (aphids)): 80 to 100%
- mortality at 500 ppm [3]: 80 to 100%
- pest or weed control at 500 ppm [4]: 80 to 100%
- mortality at 500 ppm [5, 11]: 80 to 100%
- mortality at 500 ppm [6]: 80 to 100%
- mortality at 500 ppm [7]: 80 to 100%
- mortality at 500 ppm ([8]; * test duration of 3 days): 80 to 100%
- mortality at 500 ppm ([9]; * test duration of 3 days): 80 to 100%

Compound: CC[C@@H](C(=O)O[C@@H](C#N)c1ccc(F)c(Oc2ccccc2)c1)c1cnc(C(C)(C)C)nc1 (racemic) [Compound 121, (RS)-α-cyano-4-fluoro-3-phenoxybenzyl (RS)-2-[2-(1,1-dimethylethyl)pyrimidin-5-yl]butanoate]
- mortality at 500 ppm [1]: 80 to 100%
- mortality at 500 ppm [2]: < 50%
- mortality at 500 ppm (Myzus persicae (aphids)): 80 to 100%
- mortality at 500 ppm [3]: < 50%
- pest or weed control at 500 ppm [4]: 50 to 79%
- mortality at 500 ppm [5, 11]: 80 to 100%
- mortality at 500 ppm [6]: < 50%
- mortality at 500 ppm [7]: 80 to 100%
- mortality at 500 ppm ([8]; * test duration of 3 days): 80 to 100%
- mortality at 500 ppm ([9]; * test duration of 3 days): 80 to 100%

Compound: Cc1c(F)c(F)c(COC(=O)C(c2cnc(C(C)(C)C)nc2)C(C)(C)C)c(F)c1F (racemic) [Compound 4, 2,3,5,6-tetrafluoro-4-methylbenzyl (RS)-2-[2-(1,1-dimethylethyl)pyrimidin-5-yl]-3,3-dimethylbutanoate]
- mortality at 500 ppm [1]: 80 to 100%
- mortality at 500 ppm [2]: < 50%
- mortality at 500 ppm (Myzus persicae (aphids)): 80 to 100%
- mortality at 500 ppm [10, 12]: 80 to 100%
- pest or weed control at 500 ppm [4]: 80 to 100%
- mortality at 500 ppm [5, 11]: 80 to 100%
- mortality at 500 ppm [6]: 50 to 79%
- mortality at 500 ppm [7]: 80 to 100%
- mortality at 500 ppm ([8]; * test duration of 3 days): 80 to 100%
- mortality at 500 ppm ([9]; * test duration of 3 days): 80 to 100%

Compound: CC(C)(C)c1ncc(C(C(=O)OCc2c(F)c(F)c(Cc3ccccc3)c(F)c2F)C(C)(C)C)cn1 (racemic) [Compound 17, 4-benzyl-2,3,5,6-tetrafluorobenzyl (RS)-2-[2-(1,1-dimethylethyl)pyrimidin-5-yl]-3,3-dimethylbutanoate]
- mortality at 500 ppm [1]: 50 to 79%
- mortality at 500 ppm [2]: < 50%
- mortality at 500 ppm (Myzus persicae (aphids)): < 50%
- mortality at 500 ppm ([10]; 48 h, 2 days): < 50%
- pest or weed control at 500 ppm [4]: < 50%
- mortality at 500 ppm ([5]; 72 h, 3 days): < 50%
- mortality at 500 ppm [6]: < 50%
- mortality at 500 ppm [7]: < 50%
- mortality at 500 ppm ([8]; 2 days): < 50%
- mortality at 500 ppm ([9]; 2 days): 80 to 100%

Compound: COCc1c(F)c(F)c(COC(=O)C(c2cnc(C)nc2)C(C)(C)C)c(F)c1F (racemic) [Compound 120, 2,3,5,6-tetrafluoro-4-(methoxymethyl)-benzyl (RS)-2-(2-methylpyrimidin-5-yl)-3,3-dimethylbutanoate]
- mortality at 500 ppm [1]: 80 to 100%
- mortality at 500 ppm [2]: < 50%
- mortality at 500 ppm (Myzus persicae (aphids)): 80 to 100%
- mortality at 500 ppm ([10]; 48 h, 2 days): 80 to 100%
- pest or weed control at 500 ppm [4]: 80 to 100%
- mortality at 500 ppm ([5]; 72 h, 3 days): 80 to 100%
- mortality at 500 ppm [6]: < 50%
- mortality at 500 ppm [7]: 80 to 100%
- mortality at 500 ppm ([8]; 2 days): 80 to 100%
- mortality at 500 ppm ([9]; 2 days): < 50%

Compound: COCc1c(F)c(F)c(COC(=O)C(c2cnc(C(C)(C)C)nc2)C(C)(C)C)c(F)c1F (racemic) [Compound 15, 2,3,5,6-tetrafluoro-4-(methoxymethyl)benzyl (RS)-2-[2-(1,1-dimethylethyl)pyrimidin-5-yl]-3,3-dimethylbutanoate]
- mortality at 500 ppm [1]: 80 to 100%
- mortality at 500 ppm [2]: 80 to 100%
- mortality at 500 ppm (Myzus persicae (aphids)): 80 to 100%
- mortality at 500 ppm [10, 12]: 80 to 100%
- pest or weed control at 500 ppm [4]: 80 to 100%
- mortality at 500 ppm [5, 11]: 80 to 100%
- mortality at 500 ppm [6]: 50 to 79%
- mortality at 500 ppm [7]: 80 to 100%
- mortality at 500 ppm ([8]; * test duration of 3 days): 80 to 100%
- mortality at 500 ppm ([9]; * test duration of 3 days): 80 to 100%

Compound: COCc1c(F)c(F)c(COC(=O)C(c2cnc(C(C)(C)C)nc2)C2CC2)c(OC)c1F (racemic) [Compound 92, 3,5,6-trifluoro-2-methoxy-4-(methoxymethyl)benzyl (RS)-2-[2-(1,1-dimethylethyl)pyrimidin-5-yl]-2-cyclopropylacetate]
- mortality at 500 ppm [1]: 80 to 100%
- mortality at 500 ppm [2]: < 50%
- mortality at 500 ppm (Myzus persicae (aphids)): 80 to 100%
- mortality at 500 ppm [10, 12]: 80 to 100%
- pest or weed control at 500 ppm [4]: 80 to 100%
- mortality at 500 ppm [5, 11]: 80 to 100%
- mortality at 500 ppm [6]: < 50%
- mortality at 500 ppm [7]: 80 to 100%
- mortality at 500 ppm ([8]; * test duration of 3 days): 80 to 100%
- mortality at 500 ppm ([9]; * test duration of 3 days): < 50%

Compound: C#CCc1c(F)c(F)c(COC(=O)C(c2cnc(C(F)(F)F)nc2)C(C)C)c(F)c1F (racemic) [Compound 87, 2,3,5,6-tetrafluoro-4-(prop-2-yn-1-yl)benzyl (RS)-2-(2-trifluoromethylpyrimidin-5-yl)-3-methylbutanoate]
- mortality at 500 ppm [1]: 80 to 100%
- mortality at 500 ppm [2]: 80 to 100%
- mortality at 500 ppm (Myzus persicae (aphids)): 80 to 100%
- mortality at 500 ppm [10, 12]: 50 to 79%
- pest or weed control at 500 ppm [4]: 80 to 100%
- mortality at 500 ppm [5, 11]: 80 to 100%
- mortality at 500 ppm [6]: 80 to 100%
- mortality at 500 ppm [7]: 50 to 79%
- mortality at 500 ppm ([8]; * test duration of 3 days): 80 to 100%
- mortality at 500 ppm ([9]; * test duration of 3 days): 80 to 100%

Compound: COCc1c(F)c(F)c(COC(=O)C(c2cnc(Cl)nc2)C(C)C)c(F)c1F (racemic) [Compound 118, 2,3,5,6-tetrafluoro-4-(methoxymethyl)benzyl (RS)-2-(2-chloropyrimidin-5-yl)-3-methylbutanoate]
- mortality at 500 ppm [1]: 50 to 79%
- mortality at 500 ppm [2]: < 50%
- mortality at 500 ppm (Myzus persicae (aphids)): 80 to 100%
- mortality at 500 ppm [3]: < 50%
- mortality at 500 ppm [5, 11]: 80 to 100%
- mortality at 500 ppm [6]: < 50%
- mortality at 500 ppm [7]: 50 to 79%
- mortality at 500 ppm ([8]; * test duration of 3 days): 50 to 79%
- mortality at 500 ppm ([9]; * test duration of 3 days): < 50%
